This is an account of results in patent US20250136577A1, “HETEROCYCLIC DERIVATIVES AS MALT1 INHIBITORS” (C4X Discovery Limited, priority 2022, published 2025).

The term IC50 denotes the midpoint of a concentration-inhibition curve.

In test [1] the test system is IL-2 release from stimulated Jurkat cells. Kind of test: Human IL-2 Release Phenotypic Assay (Assay 3). The format is cell-based. The following applies: Jurkat cells (clone E6-1), 200 ng/ml PMA + 300 ng/ml ionomycin, IL-2 in supernatant by ELISA. Here is the method: Human IL-2 Release Phenotypic Assay (Assay 3)
This assay measured the inhibition by MALT1 inhibitors of the IL-2 release from stimulated Jurkat cells, a human immortalized T lymphocyte cell line. IL-2 production from Jurkat cells is regulated by activation of NFκB signalling, which is in turn regulated by MALT1 protease activity.
Jurkat cells (clone E6-1, ATCC) were cultured in RPMI1640 supplemented with 10% (v/v) FBS and 1% (v/v) penicillin/streptomycin (100× liquid stocks). Cells were seeded in 96-well white tissue culture-treated plates (Perkin Elmer) at 50 000 cells/well and incubated overnight at 37° C., 5% CO2. Test compounds in DMSO at half-log dilutions were added to the cells and incubated for 30 mins. Final DMSO concentration was 0.5%. Cells were then stimulated with 200 ng/ml PMA+300 ng/ml ionomycin and incubated for 48 hours. IL-2 present in the supernatant was then measured by ELISA according to the kit instructions (ELISA MAX Deluxe Set Human IL-2, BioLegend). % inhibition was calculated for each well, using 30 μM of the commercially available MALT1 inhibitor, MLT-748, for 100% inhibition controls and no compound for 0% inhibition controls. IC50 values were calculated using GraphPad Prism using 4-parameter non-linear regression curve fit.
On the technique in general: An ELISA detects its analyte on a solid surface through an enzyme-linked reagent.

A further test concerns the target FL hMALT1 enzyme (Homo sapiens (Human), UniProt Q9UDY8). Kind of test: MALT1 Protease Assay 2 (Assay 2), higher sensitivity, cleavage of fluorogenic tetrapeptide substrate. The following applies: FL hMALT1 1-10 nM, Ac-LVSR-AMC 100 μM, 0.7 M sodium citrate, 30 min preincubation, 60 min read. It is filed as biochemical. Here is the method: MALT1 Protease Assay 2 (Assay 2)
(§1) MALT1 protease activity was assessed in vitro by measuring the cleavage of a fluorogenic tetrapeptide substrate.
For a higher sensitivity assay, commercially available FL hMALT1 enzyme (Abcam, 1-10 nM) was incubated with substrate (Ac-LVSR-AMC, 100 μM) in reaction buffer comprising 50 mM HEPES (pH7.0), 25 mM KCl, 0.1% (v/v) CHAPS, 1 mM TCEP and 0.7 M sodium citrate.
(§2) Test compounds dissolved in DMSO were dispensed into assay plates (384-well, black, shallow ProxiPlates). 7 μl enzyme solution was added and incubated at room temperature for 30 minutes to allow compound binding to occur. 2 μl substrate solution was then added and the fluorescence (excitation 360 nm, emission 460 nm) read every 15 minutes using a suitable plate reader. Final assay DMSO concentration was 1%. Linearity over 60 minutes was confirmed, and assay signal was calculated by subtracting raw counts at time 0 from those at 60 minutes. % inhibition was calculated for each well, using no enzyme for 100% inhibition controls and no compound for 0% inhibition controls. IC50 values were calculated using GraphPad Prism using a 4-parameter non-linear regression curve fit.

The target of test [2] is MALT1-GS-Ub (6-His-hMALT-1 residues 339-715 fused to ubiquitin) (Homo sapiens (Human), UniProt Q9UDY8). The experiment in a line: MALT1 Protease Assay 1 (Assay 1), cleavage of fluorogenic tetrapeptide substrate. The format is biochemical. The note with it: MALT1-GS-Ub 300-600 nM, Ac-LVSR-AMC 100 μM, 30 min preincubation, 60 min read. Here is the method: MALT1 Protease Assay 1 (Assay 1)
as §1
A protein (MALT1-GS-Ub) comprising 6-His-hMALT-1 (residues 339-715), fused to ubiquitin with an 8× GGS linker, was expressed in E. coli, and purified using chitin resin to remove contaminants followed by affinity chromatography purification and size-exclusion chromatography, according to standard protocols.
Briefly, MALT1-GS-Ub (300-600 nM) was incubated with substrate (Ac-LVSR-AMC, 100 μM) in reaction buffer comprising 50 mM HEPES (pH7.0), 25 mM KCl, 0.1% (v/v) CHAPS and 1 mM TCEP.
as §2

Chain of MALT1-GS-Ub (6-His-hMALT-1 residues 339-715 fused to ubiquitin) (Q9UDY8 other isoform, or with tags, fused parts or gaps): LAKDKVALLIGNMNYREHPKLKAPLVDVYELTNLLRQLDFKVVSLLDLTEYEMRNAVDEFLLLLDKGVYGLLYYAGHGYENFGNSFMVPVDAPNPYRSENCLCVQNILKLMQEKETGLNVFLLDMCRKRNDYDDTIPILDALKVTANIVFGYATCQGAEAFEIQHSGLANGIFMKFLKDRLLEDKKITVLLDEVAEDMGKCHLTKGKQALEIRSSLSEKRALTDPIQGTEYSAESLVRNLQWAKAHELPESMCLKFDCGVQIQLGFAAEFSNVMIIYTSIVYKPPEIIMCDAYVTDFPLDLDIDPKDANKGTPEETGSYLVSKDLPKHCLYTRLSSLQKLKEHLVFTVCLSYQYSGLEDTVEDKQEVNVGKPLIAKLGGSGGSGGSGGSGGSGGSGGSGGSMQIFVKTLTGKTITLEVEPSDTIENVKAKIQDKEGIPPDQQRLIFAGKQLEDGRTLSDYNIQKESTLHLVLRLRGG
Chain of FL hMALT1 enzyme (Q9UDY8 whole entry): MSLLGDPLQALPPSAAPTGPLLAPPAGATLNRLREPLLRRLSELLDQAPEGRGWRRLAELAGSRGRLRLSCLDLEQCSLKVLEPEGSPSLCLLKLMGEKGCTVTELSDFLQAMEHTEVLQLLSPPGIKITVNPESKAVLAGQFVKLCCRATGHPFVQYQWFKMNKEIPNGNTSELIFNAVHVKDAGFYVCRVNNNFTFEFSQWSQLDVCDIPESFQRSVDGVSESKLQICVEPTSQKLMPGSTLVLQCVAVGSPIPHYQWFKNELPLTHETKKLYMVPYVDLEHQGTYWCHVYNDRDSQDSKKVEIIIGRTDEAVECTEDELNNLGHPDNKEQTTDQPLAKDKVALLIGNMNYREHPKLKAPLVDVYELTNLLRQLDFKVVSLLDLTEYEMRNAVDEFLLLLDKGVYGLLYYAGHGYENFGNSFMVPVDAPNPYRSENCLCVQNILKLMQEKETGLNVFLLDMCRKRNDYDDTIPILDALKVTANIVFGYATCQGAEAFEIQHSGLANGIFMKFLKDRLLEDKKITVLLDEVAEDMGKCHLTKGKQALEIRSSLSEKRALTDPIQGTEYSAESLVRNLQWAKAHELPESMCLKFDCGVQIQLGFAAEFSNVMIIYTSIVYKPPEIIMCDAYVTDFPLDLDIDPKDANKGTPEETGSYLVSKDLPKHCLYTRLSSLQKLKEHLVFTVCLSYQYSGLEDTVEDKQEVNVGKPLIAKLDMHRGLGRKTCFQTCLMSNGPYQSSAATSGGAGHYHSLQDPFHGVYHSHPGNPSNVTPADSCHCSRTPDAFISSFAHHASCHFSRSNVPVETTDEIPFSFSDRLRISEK

`Cc1ncc2c(c1C#N)OC(C(F)(F)F)CN2C(=O)Nc1cnc(-n2nccn2)c(Cl)c1` (single isomer, unassigned) [Example 53, N-(5-Chloro-6-(2H-1,2,3-triazol-2-yl)pyridin-3-yl)-8-cyano-7-methyl-2-(trifluoromethyl)-2,3-dihydro-4H-pyrido[4,3-b][1,4]oxazine-4-carboxamide]: the IC50 came to 390 nM in test [1] (Homo sapiens, Jurkat, 48 h) and 60 nM against FL hMALT1 enzyme.
The corresponding values for `Nc1ncc2c(c1Br)OCCN2C(=O)Nc1cnc(-n2nccn2)c(Cl)c1` [Example 36, 7-Amino-8-bromo-N-(5-chloro-6-(2H-1,2,3-triazol-2-yl)pyridin-3-yl)-2,3-dihydro-4H-pyrido[4.3-b][1.4]oxazine-4-carboxamide] are 1700 nM and 2200 nM.
On to `CC(C)C1CN(C(=O)Nc2cnc(-n3nccn3)c(Cl)c2)c2cncc(Br)c2O1` (single isomer, unassigned) [Example 49, 8-Bromo-N-(5-chloro-6-(2H-1,2,3-triazol-2-yl)pyridin-3-yl)-2-isopropyl-2,3-dihydro-4H-pyrido[4,3-b][1,4]oxazine-4-carboxamide], for which the values for the half-maximal inhibitory concentration (IC50) (in test [1] (48 hours); against FL hMALT1 enzyme) were 4460 nM and 120 nM, respectively.
Take `CCC1CN(C(=O)Nc2cnc(-n3nccn3)c(Cl)c2)c2cncc(Br)c2O1` (single isomer, unassigned) [Example 47, 8-Bromo-N-(5-chloro-6-(2H-1,2,3-triazol-2-yl)pyridin-3-yl)-2-ethyl-2,3-dihydro-4H-pyrido[4,3-b][1,4]oxazine-4-carboxamide]: the 50% inhibitory concentration (IC50) in test [1] (48 hours) was greater than 10000 nM; against FL hMALT1 enzyme, 130 nM.
Turning to `CCC1CN(C(=O)Nc2cnc(-n3nccn3)c(Cl)c2)c2cncc(Br)c2O1` (single isomer, unassigned) [Example 46, 8-Bromo-N-(5-chloro-6-(2H-1,2,3-triazol-2-yl)pyridin-3-yl)-2-ethyl-2,3-dihydro-4H-pyrido[4,3-b][1,4]oxazine-4-carboxamide], the figures for the IC50 (in test [1] (48 hours); at FL hMALT1 enzyme) were 740 nM and 30 nM, respectively.
Turning to `N#Cc1cncc2c1OC(C(F)(F)F)CN2C(=O)Nc1cnc(-n2nccn2)c(Cl)c1` (single isomer, unassigned) [Example 55, N-(5-Chloro-6-(2H-1,2,3-triazol-2-yl)pyridin-3-yl)-8-cyano-2-(trifluoromethyl)-2,3-dihydro-4H-pyrido[4,3-b][1,4]oxazine-4-carboxamide], the IC50 turned out to be 350 nM in test [1] (Homo sapiens, Jurkat, 48 h) and 60 nM on FL hMALT1 enzyme.
For `Cc1ncc2c(c1C#N)OC(C(F)(F)F)CN2C(=O)Nc1cnc(OC(F)F)c(Cl)c1` (single isomer, unassigned) [Example 61, N-(5-Chloro-6-(difluoromethoxy)pyridin-3-yl)-8-cyano-7-methyl-2-(trifluoromethyl)-2,3-dihydro-4H-pyrido[4,3-b][1,4]oxazine-4-carboxamide], in that order: 286 nM and 21 nM.
Consider `O=C(Nc1cnc(-n2nccn2)c(Cl)c1)N1CCN(C2CCOCC2)c2c(Br)cncc21` [Example 33, 8-Bromo-N-(5-chloro-6-(2H-1,2,3-triazol-2-yl)pyridin-3-yl)-1-(tetrahydro-2H-pyran-4-yl)-2,3-dihydropyrido[3,4-b]pyrazine-4 (1H)-carboxamide], for which the IC50 in test [2] worked out at 7.6 µM; on FL hMALT1 enzyme it was 1500 nM.
Take `CN1CCN(C(=O)Nc2cnc(-n3nccn3)c(Cl)c2)c2cccc(Br)c21` [Example 16, 5-Bromo-N-(5-chloro-6-(2H-1,2,3-triazol-2-yl)pyridin-3-yl)-4-methyl-3,4-dihydroquinoxaline-1 (2H)-carboxamide]: the results for the IC50 (in test [2]; at FL hMALT1 enzyme) were 2.5 µM and 900 nM, respectively.
Turning to `CN1CCN(C(=O)Nc2cnc(-n3nccn3)c(Cl)c2)c2cncc(Br)c21` [Example 29, 8-Bromo-N-(5-chloro-6-(2H-1,2,3-triazol-2-yl)pyridin-3-yl)-1-methyl-2,3-dihydropyrido[3,4-b]pyrazine-4 (1H)-carboxamide], the IC50 in test [2] is 3.8 µM; against FL hMALT1 enzyme, greater than 3000 nM.
